Measurements: patent US20130004504A1, “METHOD OF MODULATING PHENYLALANINE HYDROXYLASE STRUCTURE AND FUNCTION” (Fox Chase Cancer Center, priority 2011, published 2013)
Like-named read-outs stand apart in the source and are kept apart here.

Columns and labels:
PAH = biological target: T1, PAH (Rattus norvegicus, UniProt P04176); details: cited from earlier work
T1 sequence (P04176 1-453): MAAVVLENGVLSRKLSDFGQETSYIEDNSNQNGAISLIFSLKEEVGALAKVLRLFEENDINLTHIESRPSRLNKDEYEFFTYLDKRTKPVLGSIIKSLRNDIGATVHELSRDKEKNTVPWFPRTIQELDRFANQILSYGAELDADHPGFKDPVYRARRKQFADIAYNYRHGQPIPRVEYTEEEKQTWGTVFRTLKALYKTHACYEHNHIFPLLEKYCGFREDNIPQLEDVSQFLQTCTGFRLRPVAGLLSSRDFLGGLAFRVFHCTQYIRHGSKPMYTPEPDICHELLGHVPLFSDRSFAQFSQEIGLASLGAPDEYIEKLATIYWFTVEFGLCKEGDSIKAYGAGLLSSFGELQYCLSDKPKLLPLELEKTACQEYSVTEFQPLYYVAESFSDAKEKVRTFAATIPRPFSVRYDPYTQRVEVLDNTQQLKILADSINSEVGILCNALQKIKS

rat PAH [1] = biological target: T2, rat PAH (Rattus norvegicus, UniProt P04176); experiment: SEC of purified rat PAH (Superdex 200); details: Phe in running buffer (FIG. 7D)
T2 construct: expression vectors for full length untagged rat and human PAH from Prof; P. Fitzpatrick; made in house
T2 sequence (P04176 1-453): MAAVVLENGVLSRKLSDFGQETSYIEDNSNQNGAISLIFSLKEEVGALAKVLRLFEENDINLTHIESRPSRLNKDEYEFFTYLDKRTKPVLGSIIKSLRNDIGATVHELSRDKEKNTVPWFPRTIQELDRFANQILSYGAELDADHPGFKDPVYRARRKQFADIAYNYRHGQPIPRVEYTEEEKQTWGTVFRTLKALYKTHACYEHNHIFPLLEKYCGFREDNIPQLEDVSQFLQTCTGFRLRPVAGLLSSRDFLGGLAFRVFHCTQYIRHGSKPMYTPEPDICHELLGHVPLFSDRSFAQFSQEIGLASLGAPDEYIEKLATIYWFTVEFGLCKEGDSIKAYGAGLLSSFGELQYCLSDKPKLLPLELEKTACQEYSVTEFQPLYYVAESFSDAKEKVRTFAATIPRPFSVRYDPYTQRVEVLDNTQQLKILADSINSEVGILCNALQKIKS
Experimental: (§1) FIG. 7 represents preliminary results on purified mammalian PAH. […] Full length human PAH, cleaved from an N-terminal MBP fusion construct, runs at a dimer:tetramer ratio of ˜2:1 on a calibrated Superdex-200 column. With 1 mM Phe added to the running buffer, this ratio is shifted to ˜1:1. Buffers contain 125 mM KCl, which is known to stabilize the tetramer. FIG. 7B represents preliminary kinetic studies on purified rat PAH, monitoring tyrosine fluorescence, showing “order of addition” effects at 300 μM Phe and 75 μM BH4. […] FIG. 7E is a full length rat PAH ([…]), run on a 1 ml HiTrap Q column in 30 mM Tris-HCl with a KCl gradient (B=400 mM KCl). […] FIG. 7F is native PhastGel Western blot showing the effects of ligands on the rat PAH quaternary structure equilibrium (overnight, RT, ˜1 mg/ml). Lane 1—as purified; Lane 2—1 mM Phe; Lane 3—50 μM Phe; Lane 4—75 μM BH4; Lane 5, 50 μPhe+75 μM BH4.
(§2) With regard to the oligomeric equilibrium, rat PAH (in 15% glycerol) is found to be predominantly tetrameric by both native PAGE and SEC (FIGS. 7C & 7D). […] Coupled with the SEC results in FIG. 7D, this illustrates that IEC can be used to separate two tetramers, 4mer and 4mer*.

rat PAH [2] = biological target: T2, rat PAH; experiment: Ion exchange chromatography of rat PAH (HiTrap Q, KCl gradient); details: 1 mM Phe in the elution buffer, 30 mM Tris-HCl, KCl gradient (FIG. 7E)
Experimental: as §1, §2

rat PAH [3] = biological target: T2, rat PAH; experiment: Native PAGE (PhastGel Western blot) of rat PAH quaternary structure equilibrium; details: ~1 mg/ml rat PAH, overnight, RT; 1 mM or 50 μM Phe, 75 μM BH4
Experimental: as §1, §2

[4] = biological target: the molecule itself; experiment: SEC on calibrated Superdex-200, buffer with 125 mM KCl and 1 mM Phe; self-association of PAH subunits
Experimental: as §1

[5] = biological target: the molecule itself; experiment: SEC on calibrated Superdex-200, buffer with 125 mM KCl, no Phe; self-association of PAH subunits
Experimental: as §1

[6] = biological target: the molecule itself; experiment: SEC on Superdex 200 (FIG. 7D); self-association

Molecule: C[C@H](O)[C@H](O)[C@H]1CNc2nc(N)[nH]c(=O)c2N1 [BH4, tetrahydrobiopterin]
- Kd (PAH; high-activity forms of PAH, read-out: Kd, binding to the high-activity forms of PAH): ~14 µM
- Kd (PAH; low-activity form(s) of PAH, read-out: Kd, binding to the low-activity form(s) of PAH): ~0.1 µM

Molecule: N[C@@H](Cc1ccccc1)C(=O)O [Phe, phenylalanine]
- effect on tetramer predominance by SEC (rat PAH [1]): not altered
- effect on IEC elution profile (rat PAH [2]): dramatically alters the elution profile
- effect on distribution of PAH quaternary structure isoforms by native PAGE (rat PAH [3]): alters the distribution of PAH quaternary structure isoforms

B1: Full length human phenylalanine hydroxylase (PAH), cleaved from an N-terminal MBP fusion construct (enzyme, UniProt P00439 1-452, looked up)
chain: MSTAVLENPGLGRKLSDFGQETSYIEDNCNQNGAISLIFSLKEEVGALAKVLRLFEENDVNLTHIESRPSRLKKDEYEFFTHLDKRSLPALTNIIKILRHDIGATVHELSRDKKKDTVPWFPRTIQELDRFANQILSYGAELDADHPGFKDPVYRARRKQFADIAYNYRHGQPIPRVEYMEEEKKTWGTVFKTLKSLYKTHACYEYNHIFPLLEKYCGFHEDNIPQLEDVSQFLQTCTGFRLRPVAGLLSSRDFLGGLAFRVFHCTQYIRHGSKPMYTPEPDICHELLGHVPLFSDRSFAQFSQEIGLASLGAPDEYIEKLATIYWFTVEFGLCKQGDSIKAYGAGLLSSFGELQYCLSEKPKLLPLELEKTAIQNYTVTEFQPLYYVAESFNDAKEKVRNFAATIPRPFSVRYDPYTQRIEVLDNTQQLKILADSINSEIGILCSALQKIK
notes: mature; also called human PAH
- dimer:tetramer ratio [4]: ~1 dimer:tetramer ratio (x:1)
- dimer:tetramer ratio [5]: ~2 dimer:tetramer ratio (x:1)

B2: Full length untagged rat phenylalanine hydroxylase (PAH), purified by the Shiman affinity method (enzyme, UniProt P04176 2-453, looked up)
chain: AAVVLENGVLSRKLSDFGQETSYIEDNSNQNGAISLIFSLKEEVGALAKVLRLFEENDINLTHIESRPSRLNKDEYEFFTYLDKRTKPVLGSIIKSLRNDIGATVHELSRDKEKNTVPWFPRTIQELDRFANQILSYGAELDADHPGFKDPVYRARRKQFADIAYNYRHGQPIPRVEYTEEEKQTWGTVFRTLKALYKTHACYEHNHIFPLLEKYCGFREDNIPQLEDVSQFLQTCTGFRLRPVAGLLSSRDFLGGLAFRVFHCTQYIRHGSKPMYTPEPDICHELLGHVPLFSDRSFAQFSQEIGLASLGAPDEYIEKLATIYWFTVEFGLCKEGDSIKAYGAGLLSSFGELQYCLSDKPKLLPLELEKTACQEYSVTEFQPLYYVAESFSDAKEKVRTFAATIPRPFSVRYDPYTQRVEVLDNTQQLKILADSINSEVGILCNALQKIKS
notes: mature; Homo-oligomer found predominantly as tetramer, with some dimer; also called rat PAH
- binding result [6]: binds
